Source: PubChem BioAssay AID1508612

Assay: passive permeability, PAMPA, ADME assay (AID 1508612)
Conditions: pH 7.4, 30.0 min, 50.0 µM

First: COc1ccc(-c2cc(-c3cccc4[nH]ncc34)cn3cncc23)cn1
Second: COCCNC(=O)c1ccc(-c2ncc3cnc(-c4cccc(F)c4)cn23)cc1
The Papp of the first is lower: under 10 nm/s for the first, 4050 nm/s for the second.

First: O=C(Nc1cccc(OC(F)(F)F)c1)c1cc(-c2ccc[nH]2)n[nH]1
Second: COc1cccc(CNc2ccc(C(=O)Nc3nccs3)cc2)c1O
The Papp of the first is lower: 266 nm/s for the first, over 10000 nm/s for the second.

First: COC(=O)c1ccnc(-c2cc(C(=O)NCCc3ccccc3)ccn2)c1
Second: O=C(NCCc1ccc(OCC(F)(F)F)c(OCC(F)(F)F)c1)c1cc2sccc2n1Cc1ccccc1
The Papp of the first is higher: 3980 nm/s for the first, 245 nm/s for the second.

Going from `Cc1cc(C)nc(NC(=S)N2CCN(c3ccc(Cl)cc3F)CC2)c1` to `Cc1ccnc(N=C(N)N2CCN(c3cccc(C(F)(F)F)c3)CC2)c1`, the Papp falls from over 10000 nm/s to 3830 nm/s.

Compared with `CCCCn1cc2c(c1-c1ccc(Br)cc1)c(=O)n(C)c(=O)n2C`, `CC(=O)c1ccc(N2CCN(S(=O)(=O)c3ccc4c(c3)n(C)c(=O)n4C)CC2)cc1` is lower in Papp: over 10000 nm/s for the first, 3060 nm/s for the second.

`CN1CCN(Cc2ccc(-c3ccc(C(C)(C)C#N)cc3)nc2)CC1` and `COc1ccccc1N1CCN(CCN(C(=O)c2ccc(I)cc2)c2ccccn2)CC1` cannot be ordered by Papp: over 10000 nm/s for the first, over 10000 nm/s for the second.

First: CN(C)c1cccc(-c2nc(N3CCC(C(N)=O)CC3)ncc2F)c1
Second: NC(=O)C1CCN(c2ncc(-c3ccc(Cl)cc3)s2)CC1
The Papp of the first is higher: 7800 nm/s for the first, 7140 nm/s for the second.

First: O=C(NC1CCCc2c1[nH]c1ccccc21)c1ccccc1 (stereo unspecified)
Second: Cc1ccccc1C(=O)N1CCc2cc(N3CCC(NC(=O)Cc4ccccc4)C3)ccc21 (stereo unspecified)
The Papp of the first is lower: 1350 nm/s for the first, 7830 nm/s for the second.

Going from `COc1ccc2c(ccn2CCC(=O)Nc2ccc3c(c2)C(=O)N2CCC[C@H]2C(=O)N3)c1` to `CCCc1oc2ccc(NS(=O)(=O)c3ccc(OC)cc3)cc2c1C(=O)OCC`, the Papp falls from 226 nm/s to under 10 nm/s.

Going from `O=C1Nc2ccccc2/C1=C/c1ccnc2ccccc12` to `O=C(Nc1nc(-c2ccccc2)cs1)c1ccncc1NS(=O)(=O)c1ccccc1F`, the Papp falls from over 10000 nm/s to 4680 nm/s.

Compared with `O=S(=O)(Nc1nccs1)c1ccc(Nc2nc(-c3ccc(F)cc3)cs2)cc1`, `O=S(=O)(Nc1ccccc1)c1ccc(NCc2ccc(Br)cc2O)cc1` is higher in Papp: 106 nm/s for the first, 5370 nm/s for the second.

Going from `Brc1ccc(-c2csc(N3CCC(c4nn[nH]n4)CC3)n2)cc1` to `NC(=O)C1CCN(c2ncc(-c3ccc(Br)cc3)s2)CC1`, the Papp rises from 1410 nm/s to 6880 nm/s.

First: O=C(O)Cc1ccc2oc(-c3ccc(NC(=O)/C=C/c4ccc(Br)cc4)c(F)c3)nc2c1
Second: Cc1ccc(-c2cc(C(=O)Nc3ccc(-c4nn[nH]n4)cc3)c3ccccc3n2)cc1C
The Papp of the first is higher: 66.3 nm/s for the first, 42.3 nm/s for the second.

First: CCN(CC)S(=O)(=O)c1ccc(N2CCOCC2)c(NC(=O)c2[nH]c(C)c(C(C)=O)c2C)c1
Second: CCc1ccc(NC(=O)c2[nH]c(C)c(C(C)=O)c2C)cc1S(=O)(=O)Nc1cccc(C#N)c1
The Papp of the first is higher: over 10000 nm/s for the first, 1780 nm/s for the second.

Going from `O=C(N/N=C/c1ccc(Sc2ccccn2)o1)c1ccncc1` to `O=C(c1ccncc1)N1CCC2(CCCN(C(c3ccccc3)c3ccccc3)C2)CC1`, the Papp rises from 768 nm/s to over 10000 nm/s.

`CCOc1cc2c(cc1OCC)CN(C(=O)c1cc3sccc3n1Cc1ccccc1)CC2` and `CCOc1ccc(CCNC(=O)c2cc3ccccc3n2Cc2cc(C)cc(C)n2)cc1OCC` cannot be ordered by Papp: over 10000 nm/s for the first, over 10000 nm/s for the second.

First: Cc1c(CN(C)c2cc(C3CC(O)C3)nc(N)n2)[nH]c2ccccc12 (stereo unspecified)
Second: Cc1cc(-c2nnc3n2CCCCC3)c(C)n1-c1ccccc1
The Papp of the first is lower: under 10 nm/s for the first, 5810 nm/s for the second.

Going from `O=C(NC1CC1)C1CCCN1C(=O)c1cccc(-c2ccccn2)c1` (stereo unspecified) to `NC(=O)C1CCN(c2nc(-c3ccccc3[N+](=O)[O-])cs2)CC1`, the Papp rises from 110 nm/s to 1090 nm/s.

Compared with `Cc1csc2c1c(=O)n(O)c(=O)n2Cc1ccccc1`, `CSc1nnc2c3ccccc3n(CCc3ccccc3)c2n1` is higher in Papp: 1160 nm/s for the first, over 10000 nm/s for the second.

`Cc1c(Cl)cccc1-n1ncc(C(=O)Nc2ccc(Br)cc2F)c1C1CCNCC1` and `O=C(c1cnc(N2CCCCC2)c2ccccc12)N1CCN(c2ccc(Cl)cc2)CC1` cannot be ordered by Papp: over 10000 nm/s for the first, over 10000 nm/s for the second.

First: O=C(Cc1ccc(O)cc1)N1CC(CNc2ccccc2)C2(C1)CN(c1ccccc1)C2 (stereo unspecified)
Second: C#CCOc1ccc(-c2nnc(Nc3ccc(NC(C)=O)cc3)c3ccccc23)cc1
The Papp of the first is lower: 1970 nm/s for the first, 5020 nm/s for the second.

Compared with `C=C1[C@@H](C)C2[C@H](Cc3ccccc3)NC(=O)[C@@]23C(/C=C/C[C@H](C)C[C@@](C)(O)/C=C/[C@@H]3OC(C)=O)[C@@H]1O` (stereo partly specified), `CCC(CC)c1cc([C@H]2CN3CC[C@H]2C[C@@H]3CNS(=O)(=O)c2cccs2)nc(-c2ccncc2)n1` is higher in Papp: 500 nm/s for the first, over 10000 nm/s for the second.

Going from `Cc1sc2c(c1C)C(c1ccc(Cl)cc1)=N[C@@H](CC(=O)Nc1ccc(OCCOCCOCCOCCNc3cccc4c3C(=O)N(C3CCC(=O)NC3=O)C4=O)cc1)c1nnc(C)n1-2` (stereo partly specified) to `CN(C(=O)c1cn2c(-c3ccc(C(F)(F)F)cc3)cnc2cn1)c1ccc(C#N)cc1`, the Papp rises from 49 nm/s to 8740 nm/s.

Compared with `NC(=O)C1CCN(c2ncc(-c3cccc(N4CCCCC4)c3)s2)CC1`, `Cc1ccccc1-c1nc(CN2CCC(C(=O)NCCCN3CCOCC3)CC2)c(C)o1` is lower in Papp: 9240 nm/s for the first, 4320 nm/s for the second.

`COc1cc(-c2c(C#N)c(N)nc3c2c(C)nn3-c2ccc(F)cc2)ccc1O` and `O=C(c1nc(-c2ccc(Cl)cc2Cl)c2cnccn12)N1CCOCC1` cannot be ordered by Papp: over 10000 nm/s for the first, over 10000 nm/s for the second.

`CCc1cc(Cl)c(OC)c(C(=O)NC[C@@H]2CCCN2CC)c1O` showed a Papp of over 10000 nm/s.
